Assay results published in patent US20240415814A1, “PHARMACEUTICAL COMPOSITION COMPRISING 1-(3-CYANO-1-ISOPROPYL-INDOL-5-YL)PYRAZOLE-4-CARBOXYLIC ACID” (LG CHEM, LTD., priority 2021, published 2024).
Read-outs that look alike come from different tables or passages of the source.

Experiments:
[1] = Phase 2 clinical trial: analysis of TEAEs; type: in vivo, human
Experimental: Selected patients gave written informed consent according to institutional and study procedures. After screening and wash-out processes (days 26 to 33 pre-dose), a total of 156 patients were finally enrolled, and each patient was randomly assigned to 5 groups of 50 mg, 100 mg and 200 mg dosing groups of the compound of Example 1, a placebo group, and a febuxostat group. Patients in each group self-administered 1 tablet of a combination drug (colchicine, 0.6 mg/day) for the prevention of gout flare along with the assigned investigational drug (50 mg, 100 mg and 200 mg doses of the compound of Example 1, placebo, and 40 mg of febuxostat group) orally, once every morning, at about the same time each day, with water, regardless of food.
When ULT is performed using a xanthine oxidase inhibitor compound, since there is a high possibility of gout flare as the tophi dissolves at the end of the bone during the initial treatment period, it was designed to be used in combination with colchicine for the purpose of inhibiting it. The drug was administered for 84 days by setting the first dosing day of the drug as day 1, and basic tests, serum uric acid concentration and the like were measured at clinic visits on 14 days (week 2), 28 days (week 4), 56 days (week 8), and 84 days (week 12) during the dosing period to determine whether TEAEs occurred. After the end of drug administration, a safety follow-up was performed for an additional 2 weeks (98 days, week 14).
Among all patient groups participating in the clinical trial, although the administration was stopped for 3 patients due to headache, gout flare in the left ankle, and liver dysfunction in the 100 mg dosing group of Example 1 and for 1 patient due to an increase in hepatic enzyme in the 200 mg dosing group, no significant treatment emergency adverse event (TEAE) was found in the remaining patient groups.

[2] = Pharmacokinetics according to renal function of patients; type: in vivo, human; conditions: for AUC(0-t) / AUC / Cmax: both sexes, human, plasma, oral, 200 mg, 200 mg once daily, Day 7, plasma; for AUC(0-t): read-out: AUC0-t (AUC0-48 h), geometric LS mean; for AUC: read-out: AUCtau, geometric LS mean; for Cmax: read-out: Cmax, ss, geometric LS mean
Experimental: PK and PD of the compound of Example 1 were assessed under patient groups with various degrees of renal function. […] A total of 37 patients were classified into 4 groups as follows based on renal function according to eGFR which was calculated by MDRD formula: • Normal: eGFR≥90 mL/min/1.73 m^2, n=13 • Mild (mild renal function impairment): eGFR 60-less than 90 mL/min/1.73 m^2, n=8 • Moderate (moderate renal function impairment): eGFR 30-less than 60 mL/min/1.73 m^2, n=8 • Severe (severe renal function impairment): eGFR<30 mL/min/1.73 m^2 and not on hemodialysis, n=8
Blood and urine samples were collected before dosing and up to 24 or 48 hours after the final dosing for PK/PD assessment.
For the compound of Example 1, statistical analysis of pharmacokinetic parameters using an ANOVA model for the pharmacokinetic population is shown in Table 2 below. The ANOVA model was fitted to the log-transformed PK parameters, with renal function impairment group fitted as a fixed effect. Point estimates and 90% CIs for differences between the least square means on the log scale were exponentiated to express the results as ratios of geometric means and CIs on the original scale.

[3] = normal renal function (control)

With CC(C)n1cc(C#N)c2cc(-n3cc(C(=O)O)cn3)ccc21 [Example 1, 1-(3-cyano-1-isopropyl-indol-5-yl)pyrazol-4-carboxylic acid] the “incidence of TEAEs” value ([1]; 50 mg, 100 mg and 200 mg groups versus placebo and febuxostat groups) was “showed no difference from the placebo group and the febuxostat group in the overall TEAE”, the “patients for whom administration was stopped (headache, gout flare in the left ankle, liver dysfunction)” value ([1]; 100 mg dosing group) was 3 patients and the “patients for whom administration was stopped (increase in hepatic enzyme)” value ([1]; 200 mg dosing group) was 1 patient. For the same compound, the “AUC0-t, ratio of geometric LS means” value ([2]; Mild/Normal) was 1.23, the “AUCtau, ratio of geometric LS means” value ([2]; Mild/Normal) was 1.23 and the “Cmax, ss, ratio of geometric LS means” value ([2]; Mild/Normal) was 1.32. For the same compound, the “AUC0-t, ratio of geometric LS means” value ([2]; Moderate/Normal) was 1.19, the “AUCtau, ratio of geometric LS means” value ([2]; Moderate/Normal) was 1.17 and the “Cmax, ss, ratio of geometric LS means” value ([2]; Moderate/Normal) was 1.15. For the same compound, the “AUC0-t, ratio of geometric LS means” value ([2]; Severe/Normal) was 1.16, the “AUCtau, ratio of geometric LS means” value ([2]; Severe/Normal) was 1.26 and the “Cmax, ss, ratio of geometric LS means” value ([2]; Severe/Normal) was 0.885. It also gave an AUC(0-t) ([2]; mild impairment) of 36500 ng·h/mL, an AUC ([2]; mild impairment) of 38100 ng·h/mL and a Cmax ([2]; mild impairment) of 7460 ng/mL. For the same compound, the AUC(0-t) ([2]; moderate impairment) was 35200 ng·h/mL, the AUC ([2]; moderate impairment) was 36100 ng·h/mL and the Cmax ([2]; moderate impairment) was 6490 ng/mL. It also gave an AUC(0-t) [2, 3] of 29700 ng·h/mL, an AUC [2, 3] of 30900 ng·h/mL and a Cmax [2, 3] of 5640 ng/mL. For the same compound, the AUC(0-t) ([2]; severe impairment) was 34300 ng·h/mL, the AUC ([2]; severe impairment) was 38900 ng·h/mL and the Cmax ([2]; severe impairment) was 4990 ng/mL.
